Source: patent US11426361B2, “Eye drops for treatment of irritation not due to infection” (Resdevco Research and Development Co. Ltd., priority 2017, dated 2022)

Tested on: human corneal epithelial cells (HCEC cell line)
Assay: Example 5: expression of barrier genes (Involucrin, Occludin, Filaggrin, Cadherin-1) at mRNA level by Q-PCR
Format: cell-based
Settings: three hours
Method: An experiment was performed to investigate the effect in vitro of a solution containing glycerol on human corneal epithelial cells, in particular, on the expression of barrier genes Involucrin, Occludin, Filaggrin, and Cadherin-1.
Immortalized human corneal epithelial cells (HCEC cell line) cultured in DMEM/F12 with 5% FBS and 10 ng/ml human epidermal growth factor (Invitrogen—Gibco). The cells were treated for three hours with one of the following three compositions: (a) an aqueous solution of glycerol (0.27% w/v); (b) 20 μg/ml Polyinosinic:polycytidylic acid (p(I:C), an activator of TLR3 to induce inflammation; and (c) a combination of the two previous compositions.
The expression of the barrier genes was determined at the mRNA level by use of quantitative “real-time” PCR (Q-PCR). Q-PCR was performed on an ABI Prism 7000 sequence detection system (Applied Biosystems, Foster City, Calif.) using the 5′ nuclease assay. Total RNA was isolated using TRIzol (Invitrogen) and 3 μg of total RNA were reverse-transcribed into cDNA by using 15 U of AMV reverse transcriptase (Promega, Madison, Wis., USA) and 0.025 μg/μl random primers (Promega). PCR amplification was performed by using the TaqMan primers and probes. As internal controls, transcripts of cyclophilin A (PPIA) were determined.

Row | Compound | effect on barrier-impairing actions of p(I:C) (barrier gene expression) (co-incubation with glycerol 0.27% during p(I:C) 20 μg/ml challenge) | expressions of Involucrin, Occludin, Filaggrin, and Cadherin-1 (p(I:C) 20 μg/ml alone)
1 | OCC(O)CO [glycerol] | significantly prevented the barrier-impairing actions of the TLR3 agonist | 
2 | Polyinosinic:polycytidylic acid [p(I:C)] |  | markedly decreased
